Experiments:
Conditions in all cases: human erythrocytes; room temperature, 1 h; serial dilutions
SNAld = SNAld (Sambucus nigra, UniProt Q8GTA6)
nigrin l = nigrin l (Sambucus nigra, UniProt Q8GT32)
SNAlm = SNAlm (Sambucus nigra, UniProt Q8GTA5)
Sequence of SNAlm (Q8GTA5 57-316 limits assumed): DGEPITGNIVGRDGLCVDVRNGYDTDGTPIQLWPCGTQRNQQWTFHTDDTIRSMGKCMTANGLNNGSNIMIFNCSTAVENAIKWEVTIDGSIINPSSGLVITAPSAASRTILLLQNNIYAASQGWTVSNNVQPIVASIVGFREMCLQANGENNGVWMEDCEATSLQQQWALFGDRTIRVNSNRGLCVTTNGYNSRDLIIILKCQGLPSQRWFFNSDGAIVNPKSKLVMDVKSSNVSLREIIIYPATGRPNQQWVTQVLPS

Sequence of SNAld (Q8GTA6 entry or part of it): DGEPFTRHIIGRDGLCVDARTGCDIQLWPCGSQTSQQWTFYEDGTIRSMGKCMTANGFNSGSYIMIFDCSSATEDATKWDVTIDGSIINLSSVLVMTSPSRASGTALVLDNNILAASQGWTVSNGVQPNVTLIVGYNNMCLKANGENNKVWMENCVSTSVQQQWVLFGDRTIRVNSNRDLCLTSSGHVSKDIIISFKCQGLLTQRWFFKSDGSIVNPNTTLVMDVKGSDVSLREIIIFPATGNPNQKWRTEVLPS
Sequence of nigrin l (Q8GT32 26-282 limits assumed): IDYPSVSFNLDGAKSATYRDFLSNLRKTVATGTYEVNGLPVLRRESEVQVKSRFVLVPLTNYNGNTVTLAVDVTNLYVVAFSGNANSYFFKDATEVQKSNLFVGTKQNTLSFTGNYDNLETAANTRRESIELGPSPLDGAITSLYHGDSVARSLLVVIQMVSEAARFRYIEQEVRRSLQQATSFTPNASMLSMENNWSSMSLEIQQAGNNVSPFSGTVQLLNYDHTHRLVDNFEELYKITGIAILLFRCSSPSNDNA
Sequence of nigrin l (Q8GT32 298-563 limits assumed): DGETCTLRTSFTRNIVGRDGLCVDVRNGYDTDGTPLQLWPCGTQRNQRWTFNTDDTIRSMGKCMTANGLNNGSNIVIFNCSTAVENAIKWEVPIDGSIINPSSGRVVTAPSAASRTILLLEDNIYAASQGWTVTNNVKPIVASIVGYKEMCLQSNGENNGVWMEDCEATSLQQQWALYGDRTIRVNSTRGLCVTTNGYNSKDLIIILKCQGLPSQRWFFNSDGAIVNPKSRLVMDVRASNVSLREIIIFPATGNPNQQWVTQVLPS

SMILES: OC[C@H]1OC(O)[C@H](O)[C@@H](O)[C@H]1O (stereo partly drawn) [D-galactose]
- SNAld (SNAld): 100 mM
- Nigrin l (nigrin l): 50 mM
- SNAlm (SNAlm): 6.25 mM

SMILES: OC[C@H]1O[C@@H](O[C@H]2[C@H](O)[C@@H](O)C(O)O[C@@H]2CO)[C@H](O)[C@@H](O)[C@H]1O (stereo partly drawn) [Lactose, β-D-galactopyranosyl-(1→4)-D-glucose]
- SNAld (SNAld): 25 mM
- Nigrin l (nigrin l): 12.5 mM
- SNAlm (SNAlm): 1.56 mM

Source: publication PMC9503024, “Structure and Biological Properties of Ribosome-Inactivating Proteins and Lectins from Elder (Sambucus nigra L.) Leaves” (Toxins, 2022)
